Reference: PubChem BioAssay (NCI)
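Five compound concentrations were applied to cells in 96-well plates for 48 hours; endpoints were derived by simple linear interpolation of the resulting dose-response curve. GI50 = concentration required for 50% inhibition of growth. TGI is the concentration that stops growth completely.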

Key:
Assay in all cases: NCI anticancer screen, dose series, 48 h
786-0 renal = tested on: 786-0 renal
A498 renal = tested on: A498 renal
A549 NSCLC = tested on: A549 NSCLC
ACHN renal = tested on: ACHN renal
BT-549 breast = tested on: BT-549 breast
CAKI-1 renal = tested on: CAKI-1 renal
CCRF-CEM leukemia = tested on: CCRF-CEM leukemia
COLO 205 colon = tested on: COLO 205 colon
DLD-1 colon = tested on: DLD-1 colon
DMS 114 small cell lung = tested on: DMS 114 small cell lung
DMS 273 small cell lung = tested on: DMS 273 small cell lung
DU-145 prostate = tested on: DU-145 prostate
EKVX NSCLC = tested on: EKVX NSCLC
HCC-2998 colon = tested on: HCC-2998 colon
HCT-116 colon = tested on: HCT-116 colon
HCT-15 colon = tested on: HCT-15 colon
HL-60(TB) leukemia = tested on: HL-60(TB) leukemia
HOP-18 NSCLC = tested on: HOP-18 NSCLC
HOP-62 NSCLC = tested on: HOP-62 NSCLC
HOP-92 NSCLC = tested on: HOP-92 NSCLC
HS 578T breast = tested on: HS 578T breast
HT29 colon = tested on: HT29 colon
IGROV1 ovarian = tested on: IGROV1 ovarian
K-562 leukemia = tested on: K-562 leukemia
KM12 colon = tested on: KM12 colon
KM20L2 colon = tested on: KM20L2 colon
LOX IMVI melanoma = tested on: LOX IMVI melanoma
LXFL 529 NSCLC = tested on: LXFL 529 NSCLC
M14 melanoma = tested on: M14 melanoma
M19-MEL melanoma = tested on: M19-MEL melanoma
MALME-3M melanoma = tested on: MALME-3M melanoma
MCF7 breast = tested on: MCF7 breast
MDA-MB-231 breast = tested on: MDA-MB-231 breast
MDA-MB-435 = tested on: MDA-MB-435
MDA-N = tested on: MDA-N
MOLT-4 leukemia = tested on: MOLT-4 leukemia
NCI-H226 lung = tested on: NCI-H226 lung
NCI-H23 lung = tested on: NCI-H23 lung
NCI-H460 lung = tested on: NCI-H460 lung
NCI-H522 lung = tested on: NCI-H522 lung
NCI/ADR-RES ovarian = tested on: NCI/ADR-RES ovarian
OVCAR-3 ovarian = tested on: OVCAR-3 ovarian
OVCAR-4 ovarian = tested on: OVCAR-4 ovarian
OVCAR-5 ovarian = tested on: OVCAR-5 ovarian
OVCAR-8 ovarian = tested on: OVCAR-8 ovarian
PC-3 prostate = tested on: PC-3 prostate
RPMI-8226 leukemia = tested on: RPMI-8226 leukemia
RXF 393 renal = tested on: RXF 393 renal
RXF-631 renal = tested on: RXF-631 renal
SF-268 CNS = tested on: SF-268 CNS
SF-295 CNS = tested on: SF-295 CNS
SF-539 CNS = tested on: SF-539 CNS
SK-MEL-2 melanoma = tested on: SK-MEL-2 melanoma
SK-MEL-28 melanoma = tested on: SK-MEL-28 melanoma
SK-MEL-5 melanoma = tested on: SK-MEL-5 melanoma
SK-OV-3 ovarian = tested on: SK-OV-3 ovarian
SN12C renal = tested on: SN12C renal
SNB-19 CNS = tested on: SNB-19 CNS
SNB-75 CNS = tested on: SNB-75 CNS
SNB-78 CNS = tested on: SNB-78 CNS
SR leukemia = tested on: SR leukemia
SW-620 colon = tested on: SW-620 colon
T-47D breast = tested on: T-47D breast
TK-10 renal = tested on: TK-10 renal
U251 CNS = tested on: U251 CNS
UACC-257 melanoma = tested on: UACC-257 melanoma
UACC-62 melanoma = tested on: UACC-62 melanoma
UO-31 renal = tested on: UO-31 renal
XF 498 CNS = tested on: XF 498 CNS

For `COC1CC(CC2CCC(C)C(C(C)C(=O)O)O2)OC2(OC(C)(C3CCC(C)(C4OC(C5OC(O)(CO)C(C)CC5C)CC4C)O3)CC2C)C1C` (stereo not given), the TGI (786-0 renal) was 30.5 µM, the TGI (A498 renal) was 3.39 µM and the TGI (A549 NSCLC) was 21.8 µM. It also gave a TGI (ACHN renal) of 45.1 µM, a TGI (BT-549 breast) of 27.7 µM and a TGI (CAKI-1 renal) of 38.3 µM. The TGI (CCRF-CEM leukemia) was 17.7 µM, the TGI (COLO 205 colon) was 2.67 µM and the TGI (DLD-1 colon) was 14.1 µM. It also gave a TGI (DMS 114 small cell lung) of 1.03 µM, a TGI (DMS 273 small cell lung) of 10.4 µM and a TGI (DU-145 prostate) of over 100 µM. The TGI (EKVX NSCLC) was 49.2 µM, the TGI (HCC-2998 colon) was 11.5 µM and the TGI (HCT-116 colon) was 15.6 µM. It also gave a TGI (HCT-15 colon) of 29.1 µM, a TGI (HL-60(TB) leukemia) of 1.1 µM and a TGI (HOP-18 NSCLC) of 11.5 µM. It also gave a TGI (HOP-62 NSCLC) of 19.6 µM, a TGI (HOP-92 NSCLC) of 16.4 µM and a TGI (HS 578T breast) of over 35.2 µM. It also gave a TGI (HT29 colon) of 27.4 µM, a TGI (IGROV1 ovarian) of 66.9 µM and a TGI (K-562 leukemia) of 2.03 µM. For the same molecule, the TGI (KM12 colon) was 11.9 µM, the TGI (KM20L2 colon) was 11 µM and the TGI (LOX IMVI melanoma) was 9.81 µM. The TGI (LXFL 529 NSCLC) was 4.02 µM, the TGI (M14 melanoma) was 5.82 µM and the TGI (M19-MEL melanoma) was 2.18 µM. For the same molecule, the TGI (MALME-3M melanoma) was 0.798 µM, the TGI (MCF7 breast) was over 27.9 µM and the TGI (MDA-MB-231 breast) was 46 µM. The TGI (MDA-MB-435) was 11.1 µM, the TGI (MDA-N) was 4.99 µM and the TGI (MOLT-4 leukemia) was 6.13 µM. For the same molecule, the TGI (NCI-H226 lung) was 21.3 µM, the TGI (NCI-H23 lung) was 8.76 µM and the TGI (NCI-H460 lung) was 22 µM. The TGI (NCI-H522 lung) was 0.591 µM, the GI50 (NCI/ADR-RES ovarian) was 2.58 µM and the TGI (NCI/ADR-RES ovarian) was over 66.1 µM. It also gave a TGI (OVCAR-3 ovarian) of 14 µM, a TGI (OVCAR-4 ovarian) of 53.1 µM and a TGI (OVCAR-5 ovarian) of 69.6 µM. It also gave a TGI (OVCAR-8 ovarian) of 41.3 µM, a TGI (PC-3 prostate) of 49 µM and a TGI (RPMI-8226 leukemia) of 8.39 µM. The TGI (RXF 393 renal) was 1.15 µM, the TGI (RXF-631 renal) was 12.9 µM and the TGI (SF-268 CNS) was 36.5 µM. It also gave a TGI (SF-295 CNS) of 11.6 µM, a TGI (SF-539 CNS) of 10.3 µM and a TGI (SK-MEL-2 melanoma) of 5.22 µM. The TGI (SK-MEL-28 melanoma) was 6.66 µM, the TGI (SK-MEL-5 melanoma) was 1.83 µM and the TGI (SK-OV-3 ovarian) was 46.3 µM. For the same molecule, the TGI (SN12C renal) was 23.7 µM, the TGI (SNB-19 CNS) was 5.67 µM and the TGI (SNB-75 CNS) was 8.7 µM. For the same molecule, the TGI (SNB-78 CNS) was 68.3 µM, the TGI (SR leukemia) was 1.54 µM and the TGI (SW-620 colon) was 17.9 µM. It also gave a TGI (T-47D breast) of 2.41 µM, a TGI (TK-10 renal) of 36.8 µM and a TGI (U251 CNS) of 11.9 µM. For the same molecule, the TGI (UACC-257 melanoma) was 4.07 µM, the TGI (UACC-62 melanoma) was 4.44 µM and the TGI (UO-31 renal) was 33.8 µM. For the same molecule, the TGI (XF 498 CNS) was 1.01 µM.
`COc1cc2c([C@@H](OC(=O)c3ccccc3)c3ccc4c(c3)OCO4)nccc2c(OC)c1OC` gave a TGI (786-0 renal) of over 100 µM, a TGI (A498 renal) of over 100 µM and a TGI (A549 NSCLC) of over 100 µM. The TGI (CAKI-1 renal) was over 100 µM, the TGI (CCRF-CEM leukemia) was over 100 µM and the TGI (COLO 205 colon) was over 100 µM. The TGI (DLD-1 colon) was over 100 µM, the TGI (DMS 114 small cell lung) was 84.1 µM and the TGI (DMS 273 small cell lung) was over 100 µM. It also gave a TGI (EKVX NSCLC) of over 100 µM, a TGI (HCC-2998 colon) of over 100 µM and a TGI (HCT-116 colon) of over 100 µM. The TGI (HCT-15 colon) was over 100 µM, the TGI (HL-60(TB) leukemia) was 92.9 µM and the TGI (HOP-18 NSCLC) was over 100 µM. For the same molecule, the TGI (HOP-62 NSCLC) was over 100 µM, the TGI (HOP-92 NSCLC) was over 100 µM and the TGI (HT29 colon) was over 100 µM. For the same molecule, the TGI (IGROV1 ovarian) was over 100 µM, the TGI (K-562 leukemia) was over 100 µM and the TGI (KM20L2 colon) was over 100 µM. The TGI (LOX IMVI melanoma) was over 100 µM, the TGI (LXFL 529 NSCLC) was over 100 µM and the TGI (M14 melanoma) was over 100 µM. For the same molecule, the TGI (M19-MEL melanoma) was over 100 µM, the TGI (MALME-3M melanoma) was over 100 µM and the TGI (MOLT-4 leukemia) was over 100 µM. It also gave a TGI (NCI-H226 lung) of 94.5 µM, a TGI (NCI-H23 lung) of over 100 µM and a TGI (NCI-H460 lung) of over 100 µM. For the same molecule, the TGI (NCI-H522 lung) was over 100 µM, the TGI (OVCAR-3 ovarian) was over 100 µM and the TGI (OVCAR-4 ovarian) was over 100 µM. The TGI (OVCAR-5 ovarian) was over 100 µM, the TGI (OVCAR-8 ovarian) was over 100 µM and the TGI (RPMI-8226 leukemia) was 51 µM. For the same molecule, the TGI (RXF 393 renal) was 85.3 µM, the TGI (RXF-631 renal) was over 100 µM and the TGI (SF-268 CNS) was over 100 µM. For the same molecule, the TGI (SF-295 CNS) was over 100 µM, the TGI (SF-539 CNS) was over 100 µM and the TGI (SK-MEL-5 melanoma) was 69.8 µM. The TGI (SK-OV-3 ovarian) was over 100 µM, the TGI (SN12C renal) was over 100 µM and the TGI (SNB-19 CNS) was over 100 µM. It also gave a TGI (SNB-75 CNS) of over 100 µM, a TGI (SNB-78 CNS) of over 100 µM and a TGI (SR leukemia) of over 100 µM. The TGI (SW-620 colon) was over 100 µM, the TGI (TK-10 renal) was over 100 µM and the TGI (U251 CNS) was over 100 µM. The TGI (UACC-257 melanoma) was over 100 µM, the TGI (UACC-62 melanoma) was over 100 µM and the TGI (UO-31 renal) was 24.9 µM. The TGI (XF 498 CNS) was 90.9 µM.
